How the values were obtained:
Type in all cases: functional
[1] = test system: Rattus norvegicus; assay: In vivo antiinflammatory activity by rat carrageenan-induced paw edema assay
[2] = test system: Rattus norvegicus; assay: Analgesic activity in rats by acetic acid writhing test at a dose of 0.017 mmol/kg
[3] = test system: Rattus norvegicus; assay: Analgesic activity in rats by acetic acid writhing test at a dose of 0.010 mmol/kg

Row | Structure (SMILES) | ED50 [1] [µmol/kg] | Analgesic activity [2] [%] | Analgesic activity [3] [%]
1 | COc1ccc2c(c1)c(CC(=O)O)c(C)n2C(=O)c1ccc(Cl)cc1 [INDOMETHACIN] | 11 | 47 | 
2 | CCCCCCCCCCCCCC[C@H](N)CO.Cl | 17 | 89.2 | 
3 | CCCCCCCCCCCCOC[C@@H](N)CO.Cl | 10 |  | 95.6
4 | CCCCCCCC/C=C/CCCCCC[C@H](N)CO.Cl | 10 |  | 88.1
5 | CCCCCCCCCCCCCC[C@@H](N)CO.Cl | 17 | 72.6 | 

Source: ChEMBL document CHEMBL1144987, “Synthesis and In vivo anti-inflammatory activity of long-chain 2-amino-alcohols” (2003)
